ChEMBL document CHEMBL5154925, “Design and Optimization of Thienopyrimidine Derivatives as Potent and Selective PI3Kδ Inhibitors for the Treatment of B-Cell Malignancies” (J Med Chem, 2022)
≈ marks a conversion by molar mass, not a printed value. Blank lines part the entries; values can stand above or below the compound they belong to.

What was measured:
[1] = target: T1, Phosphatidylinositol 4,5-bisphosphate 3-kinase catalytic subunit delta isoform (Homo sapiens, UniProt O00329); test: Inhibition of PI3Kdelta (unknown origin) using PIP2 as substrate measured after 1 hr in presence of ATP by ADP-glo luminescence assay
T1 sequence (O00329 whole entry): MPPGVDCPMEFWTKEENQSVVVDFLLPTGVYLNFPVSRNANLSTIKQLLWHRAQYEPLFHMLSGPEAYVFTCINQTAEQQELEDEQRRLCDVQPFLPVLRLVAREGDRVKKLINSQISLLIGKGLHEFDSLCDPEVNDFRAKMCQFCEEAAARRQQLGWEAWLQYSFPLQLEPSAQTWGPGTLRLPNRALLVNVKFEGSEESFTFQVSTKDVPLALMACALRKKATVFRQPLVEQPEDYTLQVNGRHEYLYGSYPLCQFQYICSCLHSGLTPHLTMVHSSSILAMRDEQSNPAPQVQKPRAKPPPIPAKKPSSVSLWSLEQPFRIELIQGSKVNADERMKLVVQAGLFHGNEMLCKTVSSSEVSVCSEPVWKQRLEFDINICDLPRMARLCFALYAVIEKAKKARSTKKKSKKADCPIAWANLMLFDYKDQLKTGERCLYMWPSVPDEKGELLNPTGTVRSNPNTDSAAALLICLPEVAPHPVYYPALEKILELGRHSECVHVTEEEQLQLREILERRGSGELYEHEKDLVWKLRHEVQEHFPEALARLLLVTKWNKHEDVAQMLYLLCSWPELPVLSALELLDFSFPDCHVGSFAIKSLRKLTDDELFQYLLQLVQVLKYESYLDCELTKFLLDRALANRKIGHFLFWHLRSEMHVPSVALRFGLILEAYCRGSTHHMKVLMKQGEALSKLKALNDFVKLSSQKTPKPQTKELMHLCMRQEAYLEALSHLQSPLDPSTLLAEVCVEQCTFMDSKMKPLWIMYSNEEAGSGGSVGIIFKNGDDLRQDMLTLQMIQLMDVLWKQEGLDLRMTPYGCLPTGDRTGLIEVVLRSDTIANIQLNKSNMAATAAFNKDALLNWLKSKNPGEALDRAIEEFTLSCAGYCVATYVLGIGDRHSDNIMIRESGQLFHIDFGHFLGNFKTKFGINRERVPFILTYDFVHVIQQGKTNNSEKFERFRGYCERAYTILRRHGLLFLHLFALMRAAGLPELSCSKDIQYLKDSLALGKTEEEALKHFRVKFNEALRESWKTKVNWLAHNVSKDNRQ

[2] = target: Phosphatidylinositol 4,5-bisphosphate 3-kinase catalytic subunit alpha isoform (Homo sapiens, UniProt P42336); test: Inhibition of PI3Kalpha (unknown origin) using PIP2 as substrate measured after 1 hr in presence of ATP by ADP-glo luminescence assay
Pfeiffer [3] = test: Induction of apoptosis in human Pfeiffer cells assessed as viable […] cells at 10 uM incubated for 48 hrs by annexin V-FITC staining based flow cytometry (reference value: 81.14 %); assay type: functional
[4] = target: Phosphatidylinositol 4,5-bisphosphate 3-kinase catalytic subunit alpha isoform (Mus musculus, UniProt P42337); test: Inhibition of PI3Kalpha in IGF-1 stimulated mouse C2C12 cells incubated for 10 mins by AlphaLISA assay; assay type: cell-based
[5] = Solubility of the compound in PBS; assay type: physicochemical
[6] = target: Phosphatidylinositol 4,5-bisphosphate 3-kinase catalytic subunit gamma isoform (Homo sapiens, UniProt P48736); test: Inhibition of PI3Kgamma (unknown origin) using PIP2 as substrate measured after 1 hr in presence of ATP by ADP-glo luminescence assay
Pfeiffer [7] = test: Induction of apoptosis in human Pfeiffer cells assessed as early apoptotic cells at 10 uM incubated for 48 hrs by annexin V-FITC staining based flow cytometry (reference value: 4.16 %); assay type: functional
Pfeiffer [8] = test: Induction of apoptosis in human Pfeiffer cells assessed as viable […] cells at 2 uM incubated for 48 hrs by annexin V-FITC staining based flow cytometry (reference value: 81.14 %); assay type: functional
Pfeiffer [9] = test: Antitumor activity against human Pfeiffer cells xenografted in nude mouse assessed as tumor growth inhibition at 30 mg/kg, po BID for 21 days and measured twice weekly; assay type: functional; settings: 504 h, time 21 day, read-out: TGI
[10] = target: Phosphatidylinositol 4,5-bisphosphate 3-kinase catalytic subunit gamma isoform (Mus musculus, UniProt Q9JHG7); test: Inhibition of PI3Kgamma in C5a stimulated mouse RAW264.7 cells incubated for 10 mins by AlphaLisa assay; assay type: cell-based
JeKo-1 = test: Antiproliferative activity against human JeKo-1 cells assessed as cell growth inhibition incubated for 96 hrs by cell titer glo assay; assay type: functional, cell-based; settings: JeKo-1, 96 h
SUD4 = test: Antiproliferative activity against human SU-DHL-4 cells assessed as cell growth inhibition incubated for 96 hrs by cell titer glo assay; assay type: functional, cell-based; settings: SU-DHL-4, 96 h
SU-DHL-6 = test: Antiproliferative activity against human SU-DHL-6 cells assessed as cell growth inhibition incubated for 96 hrs by cell titer glo assay; assay type: functional, cell-based; settings: SU-DHL-6, 96 h
[11] = Microsomal stability in mouse liver microsomes assessed as half life; assay type: ADME, Microsome
[12] = Solubility of the compound in FaSSIF; assay type: physicochemical
Pfeiffer [13] = test: Induction of apoptosis in human Pfeiffer cells assessed as late apoptotic cells at 10 uM incubated for 48 hrs by annexin V-FITC staining based flow cytometry (reference value: 7.87 %); assay type: functional
[14] = Plasma protein binding in mouse; assay type: ADME, cell-free; settings: read-out: PPB (converted)
DOHH-2 = test: Antiproliferative activity against human DOHH-2 cells assessed as cell growth inhibition incubated for 96 hrs by cell titer glo assay; assay type: functional, cell-based; settings: DOHH-2, 96 h
Pfeiffer [15] = test: Induction of apoptosis in human Pfeiffer cells assessed as early apoptotic cells at 2 uM incubated for 48 hrs by annexin V-FITC staining based flow cytometry (reference value: 4.16 %); assay type: functional
[16] = Microsomal stability in mouse liver microsomes assessed as intrinsic clearance; assay type: ADME, Microsome; settings: read-out: CLH
[17] = Toxicity in nude mouse xenografted with human Pfeiffer cells assessed as effect on body weight at 30 mg/kg, po BID for 21 days and measured twice weekly; assay type: organism-based; settings: in vivo, 504 h, time 21 day
Z-138 = test: Antiproliferative activity against human Z138 cells assessed as cell growth inhibition incubated for 96 hrs by cell titer glo assay; assay type: functional, cell-based; settings: Z-138, 96 h
[18] = target: T2, Phosphatidylinositol 4,5-bisphosphate 3-kinase catalytic subunit beta isoform (Homo sapiens, UniProt P42338); test: Inhibition of PI3Kbeta in LPA stimulated human PC-3 cells incubated for 10 mins by AlphaLISA assay; assay type: cell-based
Pfeiffer [19] = test: Induction of apoptosis in human Pfeiffer cells assessed as necrotic cells at 10 uM incubated for 48 hrs by annexin V-FITC staining based flow cytometry (reference value: 6.62 %); assay type: functional
Pfeiffer [20] = test: Antiproliferative activity against human Pfeiffer cells assessed as cell growth inhibition incubated for 96 hrs by cell titer glo assay; assay type: functional, cell-based
Pfeiffer [21] = test: Induction of apoptosis in human Pfeiffer cells assessed as necrotic cells at 2 uM incubated for 48 hrs by annexin V-FITC staining based flow cytometry (reference value: 6.62 %); assay type: functional
Pfeiffer [22] = test: Induction of apoptosis in human Pfeiffer cells assessed as late apoptotic cells at 2 uM incubated for 48 hrs by annexin V-FITC staining based flow cytometry (reference value: 7.87 %); assay type: functional
[23] = target: Serine/threonine-protein kinase mTOR (Homo sapiens, UniProt P42345); test: Inhibition of mTOR (unknown origin)
Rec1 = test: Antiproliferative activity against human REC1 cells assessed as cell growth inhibition incubated for 96 hrs by cell titer glo assay; assay type: functional, cell-based; settings: Rec1, 96 h
[24] = target: T2, Phosphatidylinositol 4,5-bisphosphate 3-kinase catalytic subunit beta isoform; test: Inhibition of PI3Kbeta (unknown origin) using PIP2 as substrate measured after 1 hr in presence of ATP by ADP-glo luminescence assay

Sequence of Phosphatidylinositol 4,5-bisphosphate 3-kinase catalytic subunit alpha isoform (Homo sapiens, UniProt P42336) (P42336 whole entry, canonical isoform): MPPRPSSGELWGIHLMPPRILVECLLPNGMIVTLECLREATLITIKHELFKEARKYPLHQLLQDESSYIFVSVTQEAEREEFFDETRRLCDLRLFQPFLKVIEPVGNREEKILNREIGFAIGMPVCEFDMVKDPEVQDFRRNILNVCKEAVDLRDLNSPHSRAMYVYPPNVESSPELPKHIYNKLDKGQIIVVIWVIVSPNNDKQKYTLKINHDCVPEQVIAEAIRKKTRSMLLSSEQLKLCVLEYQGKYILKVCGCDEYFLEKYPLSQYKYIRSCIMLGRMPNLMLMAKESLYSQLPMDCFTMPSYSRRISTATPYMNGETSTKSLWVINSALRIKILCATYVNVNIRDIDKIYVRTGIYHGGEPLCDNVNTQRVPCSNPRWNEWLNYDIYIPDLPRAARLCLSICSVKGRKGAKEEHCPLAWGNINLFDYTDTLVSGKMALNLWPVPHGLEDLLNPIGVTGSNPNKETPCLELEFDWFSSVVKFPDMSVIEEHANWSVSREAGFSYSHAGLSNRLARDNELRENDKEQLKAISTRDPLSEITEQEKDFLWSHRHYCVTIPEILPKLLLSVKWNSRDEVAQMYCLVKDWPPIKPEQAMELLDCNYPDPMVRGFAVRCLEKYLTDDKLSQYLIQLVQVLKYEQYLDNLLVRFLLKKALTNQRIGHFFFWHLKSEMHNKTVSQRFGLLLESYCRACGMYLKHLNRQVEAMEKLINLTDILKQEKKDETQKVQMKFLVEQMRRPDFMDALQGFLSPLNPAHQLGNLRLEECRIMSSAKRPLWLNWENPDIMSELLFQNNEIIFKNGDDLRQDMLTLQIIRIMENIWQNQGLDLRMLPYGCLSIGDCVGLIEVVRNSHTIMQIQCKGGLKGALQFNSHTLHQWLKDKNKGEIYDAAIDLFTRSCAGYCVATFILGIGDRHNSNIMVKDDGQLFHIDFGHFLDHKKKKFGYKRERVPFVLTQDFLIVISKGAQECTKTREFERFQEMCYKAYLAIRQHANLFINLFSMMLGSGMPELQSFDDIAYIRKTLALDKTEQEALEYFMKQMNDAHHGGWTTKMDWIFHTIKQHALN
T2 sequence (P42338 whole entry, canonical isoform): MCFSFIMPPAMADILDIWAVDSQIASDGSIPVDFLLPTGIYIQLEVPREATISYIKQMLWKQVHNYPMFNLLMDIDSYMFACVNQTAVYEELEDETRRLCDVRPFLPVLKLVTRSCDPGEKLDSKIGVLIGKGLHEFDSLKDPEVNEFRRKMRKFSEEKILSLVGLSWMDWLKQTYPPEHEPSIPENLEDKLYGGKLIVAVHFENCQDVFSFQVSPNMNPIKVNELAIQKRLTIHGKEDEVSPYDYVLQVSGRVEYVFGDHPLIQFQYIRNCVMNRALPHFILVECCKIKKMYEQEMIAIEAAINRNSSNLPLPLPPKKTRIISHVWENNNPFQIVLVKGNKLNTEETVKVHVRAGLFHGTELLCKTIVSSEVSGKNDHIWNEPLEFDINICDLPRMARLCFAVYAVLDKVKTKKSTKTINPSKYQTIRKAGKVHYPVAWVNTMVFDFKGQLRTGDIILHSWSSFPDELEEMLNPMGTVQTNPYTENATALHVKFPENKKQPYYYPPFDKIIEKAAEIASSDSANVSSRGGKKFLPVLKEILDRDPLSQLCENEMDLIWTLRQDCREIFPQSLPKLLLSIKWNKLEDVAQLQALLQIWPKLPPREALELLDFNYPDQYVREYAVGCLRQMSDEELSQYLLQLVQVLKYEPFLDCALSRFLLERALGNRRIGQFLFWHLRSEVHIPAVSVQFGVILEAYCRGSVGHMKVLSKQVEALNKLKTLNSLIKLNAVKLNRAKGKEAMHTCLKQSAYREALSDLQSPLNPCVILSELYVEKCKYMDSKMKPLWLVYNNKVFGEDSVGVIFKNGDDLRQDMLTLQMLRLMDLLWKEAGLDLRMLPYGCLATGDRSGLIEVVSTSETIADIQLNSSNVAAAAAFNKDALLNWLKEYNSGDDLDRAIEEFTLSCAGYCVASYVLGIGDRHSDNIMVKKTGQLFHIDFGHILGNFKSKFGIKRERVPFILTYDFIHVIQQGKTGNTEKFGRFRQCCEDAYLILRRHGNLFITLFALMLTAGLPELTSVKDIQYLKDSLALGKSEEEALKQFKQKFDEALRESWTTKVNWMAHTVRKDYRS
Sequence of Phosphatidylinositol 4,5-bisphosphate 3-kinase catalytic subunit gamma isoform (Mus musculus, UniProt Q9JHG7) (Q9JHG7 whole entry, canonical isoform): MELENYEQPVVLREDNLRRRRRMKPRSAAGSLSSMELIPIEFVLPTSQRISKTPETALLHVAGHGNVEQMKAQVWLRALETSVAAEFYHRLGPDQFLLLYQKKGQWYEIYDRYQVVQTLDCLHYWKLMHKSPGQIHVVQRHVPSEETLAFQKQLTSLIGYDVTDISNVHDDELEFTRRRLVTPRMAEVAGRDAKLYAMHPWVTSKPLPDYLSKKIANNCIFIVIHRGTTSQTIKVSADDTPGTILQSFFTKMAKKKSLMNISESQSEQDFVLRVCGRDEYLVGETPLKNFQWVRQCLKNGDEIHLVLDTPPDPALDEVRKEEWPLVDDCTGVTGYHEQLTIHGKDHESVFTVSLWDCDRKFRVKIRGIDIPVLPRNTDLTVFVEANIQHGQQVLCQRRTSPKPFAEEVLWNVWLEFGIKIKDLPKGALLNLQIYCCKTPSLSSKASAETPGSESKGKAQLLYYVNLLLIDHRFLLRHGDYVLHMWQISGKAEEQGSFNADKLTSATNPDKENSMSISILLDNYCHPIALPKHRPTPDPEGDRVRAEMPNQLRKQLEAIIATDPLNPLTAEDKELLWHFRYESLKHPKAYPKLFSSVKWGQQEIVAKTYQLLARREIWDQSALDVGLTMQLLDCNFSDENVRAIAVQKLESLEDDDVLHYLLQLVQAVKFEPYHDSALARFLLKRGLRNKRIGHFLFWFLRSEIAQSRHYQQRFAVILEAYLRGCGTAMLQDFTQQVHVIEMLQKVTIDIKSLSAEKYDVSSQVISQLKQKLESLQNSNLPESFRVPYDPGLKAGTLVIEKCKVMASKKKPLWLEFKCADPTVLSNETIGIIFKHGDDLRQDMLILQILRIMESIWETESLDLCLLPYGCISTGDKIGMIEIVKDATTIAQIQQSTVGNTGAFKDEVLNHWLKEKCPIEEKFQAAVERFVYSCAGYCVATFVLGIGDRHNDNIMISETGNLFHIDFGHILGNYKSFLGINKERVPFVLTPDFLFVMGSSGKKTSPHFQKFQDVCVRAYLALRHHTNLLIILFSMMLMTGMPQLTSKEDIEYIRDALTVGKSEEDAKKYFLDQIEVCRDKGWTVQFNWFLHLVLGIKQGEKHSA
Sequence of Phosphatidylinositol 4,5-bisphosphate 3-kinase catalytic subunit gamma isoform (Homo sapiens, UniProt P48736) (P48736 whole entry, canonical isoform): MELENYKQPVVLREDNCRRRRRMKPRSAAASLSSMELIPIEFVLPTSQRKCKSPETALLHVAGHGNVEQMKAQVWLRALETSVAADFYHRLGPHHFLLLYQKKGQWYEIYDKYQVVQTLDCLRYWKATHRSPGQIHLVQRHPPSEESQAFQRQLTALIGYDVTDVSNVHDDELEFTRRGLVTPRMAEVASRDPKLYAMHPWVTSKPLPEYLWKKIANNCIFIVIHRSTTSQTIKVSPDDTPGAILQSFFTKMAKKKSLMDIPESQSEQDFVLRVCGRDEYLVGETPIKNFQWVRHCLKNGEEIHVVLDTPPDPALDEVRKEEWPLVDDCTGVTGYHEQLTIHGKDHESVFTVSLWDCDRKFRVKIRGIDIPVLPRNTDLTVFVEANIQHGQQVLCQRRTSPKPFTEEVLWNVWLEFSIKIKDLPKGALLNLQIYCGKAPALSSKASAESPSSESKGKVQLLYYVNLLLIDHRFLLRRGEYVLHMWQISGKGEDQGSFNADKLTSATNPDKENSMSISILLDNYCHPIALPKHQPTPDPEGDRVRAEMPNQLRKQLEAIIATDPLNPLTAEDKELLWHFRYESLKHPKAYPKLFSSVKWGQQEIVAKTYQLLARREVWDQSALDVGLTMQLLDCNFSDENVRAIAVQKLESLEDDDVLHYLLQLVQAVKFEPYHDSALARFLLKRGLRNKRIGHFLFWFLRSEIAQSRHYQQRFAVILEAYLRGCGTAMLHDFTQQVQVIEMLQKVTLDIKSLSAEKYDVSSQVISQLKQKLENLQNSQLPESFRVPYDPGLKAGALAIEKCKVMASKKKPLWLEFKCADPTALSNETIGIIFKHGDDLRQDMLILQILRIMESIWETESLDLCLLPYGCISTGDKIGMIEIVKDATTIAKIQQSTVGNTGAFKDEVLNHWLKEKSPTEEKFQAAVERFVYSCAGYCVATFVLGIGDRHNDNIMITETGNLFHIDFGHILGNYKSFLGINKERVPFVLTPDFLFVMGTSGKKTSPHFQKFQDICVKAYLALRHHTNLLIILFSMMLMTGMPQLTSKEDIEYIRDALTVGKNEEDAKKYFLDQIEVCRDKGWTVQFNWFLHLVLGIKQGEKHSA

SMILES: CCC(=O)N1CC[C@H](Nc2ncnc3sc(-c4cnc(OC)nc4)cc23)C1
IC50 [1]: 37 nM
IC50 [2]: 2580 nM

SMILES: COc1cc(-c2cc3c(N[C@H]4CCN(C(=O)C5CC5)C4)ncnc3s2)cnc1OC
IC50 [1]: 4.7 nM
IC50 [2]: 154 nM

SMILES: CCC(=O)N1CC[C@H](Nc2ncnc3sc(-c4ccc(F)c(C#N)c4)cc23)C1
IC50 [1]: 1010 nM
IC50 [2]: > 10000 nM

SMILES: CCC(=O)N1CC[C@H](Nc2ncnc3sc(-c4ccc(OC)c(F)c4)cc23)C1
IC50 [1]: 182 nM
IC50 [2]: 5640 nM

SMILES: COc1cc(-c2cc3c(N[C@H]4CCN(C(=O)c5ccccc5)C4)ncnc3s2)cnc1OC
IC50 [1]: 26 nM
IC50 [2]: 395 nM

SMILES: CCC(=O)N1CC[C@H](Nc2ncnc3sc(-c4ccc(C#N)nc4)cc23)C1
IC50 [1]: 458 nM
IC50 [2]: > 1000 nM

SMILES: CCCC(=O)N1CC[C@H](Nc2ncnc3sc(-c4cnc(OC)c(OC)c4)cc23)C1
IC50 [1]: 12 nM
IC50 [2]: 363 nM

SMILES: CCC(=O)N1CC[C@H](Oc2ncnc3sc(-c4cnc(OC)c(C#N)c4)cc23)C1
IC50 [1]: 156 nM
IC50 [2]: 7330 nM

Continued, in another order:

IC50 [1]: 269 nM
IC50 [2]: > 10000 nM
SMILES: CCC(=O)N1CC[C@H](Oc2ncnc3sc(-c4cnc(OC)c(C(F)(F)F)c4)cc23)C1

IC50 [1]: 128 nM
IC50 [2]: 3070 nM
SMILES: CCC(=O)N1CC[C@H](Nc2ncnc3sc(-c4cccc(S(C)(=O)=O)c4)cc23)C1

IC50 [4]: 19600 nM
solubility [5]: 57.9 µM (≈ 26.1 µg/mL)
IC50 [6]: 902 nM
IC50 [10]: 4040 nM
IC50 [2]: 75.5 nM
IC50 (SU-DHL-6): 770 nM
half-life [11]: 15.4 min
solubility [12]: 77.6 µM (≈ 35 µg/mL)
fraction unbound [14]: 0.066
CLint scaled [16]: 355 mL/min/kg
IC50 [18]: 2680 nM
IC50 [23]: > 10000 nM
IC50 [24]: 363 nM
SMILES: CCC(=O)N1CC[C@H](Nc2ncnc3c2CN(c2cnc(OC)c(C(F)(F)F)c2)CC3)C1 [LENIOLISIB]
Activity (Pfeiffer [3]): 75.9%
Activity (Pfeiffer [7]): 5.53%
Activity (Pfeiffer [8]): 78.31%
inhibition in vivo at 30 mg/kg (Pfeiffer [9]): 53.8%
IC50 (JeKo-1): 31700 nM
IC50 (SUD4): 8250 nM
Activity (Pfeiffer [13]): 12.88%
IC50 (DOHH-2): 29200 nM
Activity (Pfeiffer [15]): 5.7%
Activity [17]: 10%
IC50 (Z-138): 31200 nM
Activity (Pfeiffer [19]): 5.69%
IC50 (Pfeiffer [20]): 3750 nM
Activity (Pfeiffer [21]): 4.76%
Activity (Pfeiffer [22]): 11.23%
IC50 (Rec1): 1280 nM

IC50 [1]: 136 nM
IC50 [2]: 2900 nM
SMILES: CCC(=O)N1CC[C@H](Nc2ncnc3sc(-c4ccc(OC)nc4)cc23)C1

IC50 [1]: 21 nM
IC50 [2]: 589 nM
SMILES: CCC(=O)N1CC[C@H](Nc2ncnc3sc(-c4ccc(OC)c(OC)c4)cc23)C1

IC50 [1]: 465 nM
IC50 [2]: > 10000 nM
SMILES: CCC(=O)N1CC[C@H](Nc2ncnc3sc(-c4ccc(S(C)(=O)=O)cc4)cc23)C1

IC50 [1]: 8.5 nM
IC50 [2]: 483 nM
SMILES: COc1cc(-c2cc3c(N[C@H]4CCN(C(=O)C5CCCC5)C4)ncnc3s2)cnc1OC
